{"source": "patent US4756710A", "about": "“pH-Mediated drug delivery system” (Merck & Co., Inc., priority 1986, dated 1988)", "key": {"[1]": {"conditions": "in water at 25° C.; reported; cited from earlier work"}, "[2]": {"conditions": "from equation (1); 30 percent ethanol/water; polyurethane membrane 0.0038 cm"}, "[3]": {"experiment": "Solubility of timolol maleate in pH controlled glycol reservoir vehicles", "format": "physicochemical"}, "[4]": {"experiment": "Solubility in mineral oil", "format": "physicochemical"}, "[5]": {"format": "physicochemical", "conditions": "not told", "experimental": "Several pH controlled reservoir systems were prepared in a similar manner employing non-aqueous or aqueous glycol vehicles and different buffering agents. For this example, sorbitol USP and 70 percent aqueous propylene glycol were employed. The pH was adjusted with either Na2 HPO4 or Na2 CO3. pH measurements were made on a pH meter with a standard glass electrode and the flux determined in a diffusion cell employing a mineral oil soaked Celgard membrane to separate the buffered reservoir from the receptor phase."}, "[6]": {"experiment": "Concentration of timolol base in aqueous buffer solutions calculated with the Henderson-Hasselbalch equation", "format": "physicochemical", "conditions": "pH 9.0; 15 mg/ml timolol maleate in aqueous buffer", "excerpt": "where T is the time lag. Thus, after determining T, D may be calculated. By experimentally determining flux, and substituting in equation (1), K may be obtained. Having thus determined K and D, the desired flux may be achieved by making appropriate modifications of the pH, thereby the concentration, and/or the thickness of the membrane. The appropriate modifications in pH may be arrived at by preparing a series of buffer solutions containing a known quantity of the salt form of drug at various pH values and substituting in the Henderson-Hasselbalch equation, [formula] C, the concentration of the unionized form, may be calculated."}, "[7]": {"excerpt": "The following operation illustrates with timolol the relationship among pH, the concentration C, of the timolol base in solution in the reservoir, and the flux calculated from the data as well as the observed flux obtained by placing the compositions behind the selected membrane in a diffusion cell and measuring the rate of release into an isotonic phosphate buffer of pH 7.4.\nAs a first step in determining the relationship between pH, concentration of timolol, its pK and the pH of the reservoir, an aqueous solution of 7.0 mg/ml of timolol was placed in a diffusion measuring cell fitted with a 1.5 mil (0.0038 cm) thick silicone membrane and the transport of timolol from the reservoir of the test cell to an isotonic pH 7.4 receptor phase was measured over a period of about eight hours by sampling the solution in the receptor phase, assaying this solution for drug by direct ultraviolet assay method and calculating the drug concentration over time, thereafter plotting the drug diffused per square centimeter versus time and calculating the regression line.\nFrom the calculated concentration of the timolol base, the previously determined values for D and K and the known thickness of the membrane, the steady state flux was calculated (equation (1)). Thereafter, the steady state flux was determined experimentally by measuring the transport of timolol at each pH from the buffer system into an isotonic receptor phase through the silicone membrane."}}, "note": "Structures can show the parent of a compound that is named as a salt. Where two headings read alike, the source gives them in different places."}
{"smiles": "CC1=C(CC(=O)O)c2cc(F)ccc2/C1=C\\c1ccc([S+](C)[O-])cc1", "note": "(centres unmarked) [sulindac]", "values": [{"measurement": "pKa", "setting": "[1]", "value": 4.7}, {"measurement": "product KD", "setting": "[2]", "value": "9.38×10^-4 cm^2 /hr"}]}
{"smiles": "CC(C)(C)NC[C@H](O)COc1nsnc1N1CCOCC1", "note": "[timolol maleate]", "values": [{"measurement": "solubility", "setting": "[3]; 70% propylene glycol + na2co3, organic solvent or mixture, 70% Propylene glycol +Na2 CO3, apparent pH 7.6", "value": 124, "unit": "mg/mL"}, {"measurement": "solubility", "setting": "[3]; sorbitol usp + na2co3, Sorbitol USP +Na2 CO3, apparent pH 9.6", "value": 0.7, "unit": "mg/mL"}, {"measurement": "solubility", "setting": "[3]; sorbitol usp + na2hpo4, Sorbitol USP +Na2 HPO4, apparent pH 6.9", "value": 17.2, "unit": "mg/mL"}, {"measurement": "solubility in mineral oil", "setting": "[4]", "value": "substantially insoluble"}, {"measurement": "Jobs (flux)", "setting": "[5]; pH 6.9", "value": 6.7, "unit": "mcg/cm^2 /hr"}, {"measurement": "Jobs (flux)", "setting": "[5]; pH 7.6", "value": 7.4, "unit": "mcg/cm^2 /hr"}, {"measurement": "Jobs (flux)", "setting": "[5]; pH 9.6", "value": 2.8, "unit": "mcg/cm^2 /hr"}]}
{"smiles": "CC(C)(C)NC[C@H](O)COc1nsnc1N1CCOCC1", "note": "[timolol]", "values": [{"measurement": "solubility", "setting": "[4]; organic solvent or mixture, 32° C.", "value": "~7000", "unit": "µg/mL"}, {"measurement": "Cs Timolol Base", "setting": "[6]", "value": 4210, "unit": "µg/mL"}, {"measurement": "partition coefficient between drug reservoir and membrane, K", "setting": "[7]", "value": 2.05}, {"measurement": "time lag, T", "setting": "[7]; aqueous solution of 7.0 mg/ml timolol, 1.5 mil silicone membrane, plot extrapolated to time axis", "value": 0.0096, "unit": "h"}, {"measurement": "drug diffusion coefficient in the membrane, D", "setting": "[7]; silicone membrane, from equations (1) and (2)", "value": "2.5×10^-4 cm^2 /hr"}]}
